Reference: PMC6934184, “Selective DNA-PKcs inhibition extends the therapeutic index of localized radiotherapy and chemotherapy” (The Journal of Clinical Investigation, 2019)

Target: T1, DAPK3 (ZIPK) (Homo sapiens, UniProt O43293)
T1 construct: purchased Thermo Fisher Scientific (Life Technologies) SelectScreen
Experiment: SelectScreen Z'LYTE
Format: biochemical
Method in brief: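 Compound tested in SelectScreen activity assays, Z'LYTE for CSF1R, CDK1/cyclin B and MAP2K6 and Adapta for CAMK1. ATP for CAMK1 was listed as 10, and Km app was used for CSF1R. Results are expressed in percent.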

T1 sequence (O43293 whole entry): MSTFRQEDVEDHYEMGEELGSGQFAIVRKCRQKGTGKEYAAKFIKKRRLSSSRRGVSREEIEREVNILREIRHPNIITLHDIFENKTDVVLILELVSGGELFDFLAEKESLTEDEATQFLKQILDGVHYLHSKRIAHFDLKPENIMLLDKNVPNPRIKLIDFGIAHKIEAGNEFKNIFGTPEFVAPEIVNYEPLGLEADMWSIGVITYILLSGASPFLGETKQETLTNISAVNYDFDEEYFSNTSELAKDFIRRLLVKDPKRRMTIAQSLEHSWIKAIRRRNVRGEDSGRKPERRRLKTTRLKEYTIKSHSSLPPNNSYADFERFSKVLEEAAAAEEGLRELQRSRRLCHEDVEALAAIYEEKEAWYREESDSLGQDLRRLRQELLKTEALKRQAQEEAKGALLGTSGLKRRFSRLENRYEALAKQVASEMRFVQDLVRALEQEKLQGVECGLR

SMILES: CN(C(=O)CN1CCOCC1)c1ccc2sc3c(-c4cccc5c(=O)cc(N6CC7CCC(C6)O7)oc45)cccc3c2c1 [NU5455]
- inhibition at 1 µM: -3.4%
